Assay results from the NIST ThermoML archive (doi:10.1016/j.jct.2011.02.018).

Assay: xn = mol fraction of the nth substance listed
Details: 101 kPa, Liquid; for viscosity: Concentric cylinders viscometry; for mass density: Vibrating tube method

COC(C)(C)C [2-methoxy-2-methylpropane] + CCCCO
Details | mass density, 293.15 K [kg/m3] | mass density, 298.15 K [kg/m3] | mass density, 303.15 K [kg/m3] | mass density, 308.15 K [kg/m3] | viscosity, 293.15 K [mPa·s] | viscosity, 298.15 K [mPa·s] | viscosity, 303.15 K [mPa·s] | viscosity, 308.15 K [mPa·s]
x1 = 0.0104 | 809.06 | 805.25 | 801.38 | 797.5 | 2.875 | 2.518 | 2.22 | 1.958
x1 = 0.0243 | 808.13 | 804.31 | 800.43 | 796.52 | 2.741 | 2.41 | 2.126 | 1.882
x1 = 0.0294 | 807.77 | 803.94 | 800.06 | 796.14 | 2.696 | 2.374 | 2.094 | 1.855
x1 = 0.0396 | 807.09 | 803.24 | 799.35 | 795.41 | 2.618 | 2.298 | 2.032 | 1.8
x1 = 0.0498 | 806.41 | 802.54 | 798.63 | 794.68 | 2.522 | 2.227 | 1.973 | 1.75
x1 = 0.0601 | 805.74 | 801.84 | 797.91 | 793.95 | 2.439 | 2.156 | 1.908 | 1.697
x1 = 0.0699 | 805.07 | 801.16 | 797.21 | 793.24 | 2.366 | 2.093 | 1.857 | 1.654
x1 = 0.0804 | 804.38 | 800.44 | 796.49 | 792.5 | 2.296 | 2.028 | 1.809 | 1.612
x1 = 0.0898 | 803.72 | 799.79 | 795.81 | 791.81 | 2.224 | 1.969 | 1.752 | 1.564
x1 = 0.1006 | 802.95 | 798.99 | 795 | 790.98 | 2.144 | 1.903 | 1.695 | 1.514
x1 = 0.1507 | 799.54 | 795.53 | 791.47 | 787.38 | 1.85 | 1.656 | 1.489 | 1.334
x1 = 0.1993 | 796.26 | 792.17 | 788.04 | 783.88 | 1.6 | 1.437 | 1.294 | 1.169
x1 = 0.2516 | 792.7 | 788.55 | 784.35 | 780.11 | 1.382 | 1.25 | 1.132 | 1.029
x1 = 0.3022 | 789.27 | 785.01 | 780.75 | 776.43 | 1.216 | 1.103 | 0.9992 | 0.9132
x1 = 0.3515 | 785.87 | 781.6 | 777.25 | 772.86 | 1.077 | 0.9815 | 0.893 | 0.8189
x1 = 0.4031 | 782.33 | 777.98 | 773.56 | 769.1 | 0.9523 | 0.8743 | 0.797 | 0.7323
x1 = 0.4497 | 779.15 | 774.73 | 770.24 | 765.7 | 0.8598 | 0.7902 | 0.7267 | 0.6743
x1 = 0.4999 | 775.69 | 771.23 | 766.66 | 762.05 | 0.7724 | 0.7125 | 0.6568 | 0.6081
x1 = 0.5485 | 772.39 | 767.84 | 763.2 | 758.52 | 0.6999 | 0.6476 | 0.5981 | 0.5512
x1 = 0.5953 | 769.2 | 764.57 | 759.86 | 755.11 | 0.6397 | 0.5937 | 0.5512 | 0.5073
x1 = 0.6445 | 765.82 | 761.14 | 756.35 | 751.52 | 0.585 | 0.5452 | 0.506 | 0.4692
x1 = 0.6999 | 762 | 757.24 | 752.37 | 747.46 | 0.53 | 0.4937 | 0.4595 | 0.4236
x1 = 0.7466 | 758.77 | 753.92 | 748.98 | 744 | 0.4912 | 0.4586 | 0.4275 | 0.395
x1 = 0.8067 | 754.66 | 749.65 | 744.63 | 739.55 | 0.4474 | 0.4167 | 0.3876 | 0.3578
x1 = 0.8404 | 752.26 | 747.22 | 742.14 | 737.01 | 0.4251 | 0.3961 | 0.3679 | 0.3465
x1 = 0.8695 | 750.22 | 745.15 | 740.03 | 734.85 | 0.408 | 0.3799 | 0.3544 | 0.3327
x1 = 0.8983 | 748.09 | 743 | 737.86 | 732.64 | 0.3889 | 0.3651 | 0.3371 | 0.3165
x1 = 0.9092 | 747.32 | 742.21 | 737.05 | 731.8 | 0.3832 | 0.3591 | 0.3333 | 0.3137
x1 = 0.9188 | 746.62 | 741.51 | 736.33 | 731.09 | 0.3778 | 0.3547 | 0.3301 | 0.3112
x1 = 0.9299 | 745.83 | 740.69 | 735.5 | 730.24 | 0.3717 | 0.3493 | 0.3249 | 0.305
x1 = 0.9398 | 745.11 | 739.96 | 734.74 | 729.47 | 0.3683 | 0.3491 | 0.329 | 0.3048
x1 = 0.9492 | 744.42 | 739.25 | 734.03 | 728.76 | 0.3654 | 0.3479 | 0.3225 | 0.3006
x1 = 0.9607 | 743.59 | 738.39 | 733.15 | 727.86 | 0.358 | 0.3391 | 0.3169 | 0.2958
x1 = 0.9697 | 742.97 | 737.75 | 732.49 | 727.18 | 0.356 | 0.331 | 0.3107 | 0.2998
x1 = 0.9796 | 742.24 | 737.01 | 731.74 | 726.41 | 0.3489 | 0.3267 | 0.3076 | 0.2964
x1 = 0.9902 | 741.47 | 736.22 | 730.94 | 725.59 | 0.3456 | 0.3214 | 0.2976 | 0.2892
